Measured values reported in publication PMC5218480 (PLoS ONE, 2017).

Tested on: MV-4-11 cells
Experiment: Gene expression microarray analysis (Affymetrix PrimeView) and GSEA
Type: cell-based, human
Design: RFU PODN (11730768_x_at) / Fold change /veh PODN (11730768_x_at) / RFU LINC00158 (11744669_a_at) / Fold change /veh LINC00158 (11744669_a_at) / RFU DUSP10 (11751237_a_at) / Fold change /veh DUSP10 (11751237_a_at) / RFU ID3 (11757404_x_at) / Fold change /veh ID3 (11757404_x_at) / RFU PLEKHG5 (11737974_s_at) / Fold change /veh PLEKHG5 (11737974_s_at) / RFU LRRC4B (11730491_at) / Fold change /veh LRRC4B (11730491_at) / RFU GIMAP4 (11747438_a_at) / Fold change /veh GIMAP4 (11747438_a_at) / RFU KRT8 (11758183_x_at) / Fold change /veh KRT8 (11758183_x_at) / RFU CNN1 (11734310_a_at) / Fold change /veh CNN1 (11734310_a_at) / RFU VPS37D (11726825_at) / Fold change /veh VPS37D (11726825_at) / RFU C10orf10 (11716522_x_at) / Fold change /veh C10orf10 (11716522_x_at) / RFU KIR2DL2 /// KIR2DL4 /// KIR2DL5A /// KIR2DL5B /// KIR2DS1 /// KIR2DS2 /// KIR2DS3 /// KIR2DS4 /// KIR3DL3 /// KIR3DL3 /// KIR3DS1 (11738374_at) / Fold change /veh KIR2DL2 /// KIR2DL4 /// KIR2DL5A /// KIR2DL5B /// KIR2DS1 /// KIR2DS2 /// KIR2DS3 /// KIR2DS4 /// KIR3DL3 /// KIR3DL3 /// KIR3DS1 (11738374_at) / RFU C1QL1 (11718748_at) / Fold change /veh C1QL1 (11718748_at) / RFU TMPRSS4 (11747572_a_at) / Fold change /veh TMPRSS4 (11747572_a_at) / RFU HAMP (11756126_x_at) / Fold change /veh HAMP (11756126_x_at) / RFU RNFT2 (11725882_a_at) / Fold change /veh RNFT2 (11725882_a_at) / RFU NR4A2 (11747474_a_at) / Fold change /veh NR4A2 (11747474_a_at) / RFU ABCC12 (11746883_a_at) / Fold change /veh ABCC12 (11746883_a_at) / RFU TMEM136 (11760407_x_at) / Fold change /veh TMEM136 (11760407_x_at) / RFU CLDN22 /// WWC2 (11732394_at) / Fold change /veh CLDN22 /// WWC2 (11732394_at) / RFU HLA-DPB1 (11760878_x_at) / Fold change /veh HLA-DPB1 (11760878_x_at) / RFU SPINT1 (11716480_a_at) / Fold change /veh SPINT1 (11716480_a_at) / RFU GAP43 (11754022_s_at) / Fold change /veh GAP43 (11754022_s_at) / RFU A4GNT (11735810_at) / Fold change /veh A4GNT (11735810_at) / RFU PRB3 (11715151_x_at) / Fold change /veh PRB3 (11715151_x_at) / RFU TUBB4B (11761932_at) / Fold change /veh TUBB4B (11761932_at) / RFU CAPN14 (11732068_a_at) / Fold change /veh CAPN14 (11732068_a_at) / RFU TMCC2 (11721928_a_at) / Fold change /veh TMCC2 (11721928_a_at) / RFU IRGQ (11745062_a_at) / Fold change /veh IRGQ (11745062_a_at) / RFU FAM174B (11720279_a_at) / Fold change /veh FAM174B (11720279_a_at) / RFU TMPRSS4 (11748680_a_at) / Fold change /veh TMPRSS4 (11748680_a_at) / RFU FAM212B (11763350_a_at) / Fold change /veh FAM212B (11763350_a_at) / RFU PLEKHG5 (11743358_a_at) / Fold change /veh PLEKHG5 (11743358_a_at) / RFU ZSCAN30 (11745921_a_at) / Fold change /veh ZSCAN30 (11745921_a_at) / RFU CMKLR1 (11741424_a_at) / Fold change /veh CMKLR1 (11741424_a_at) / RFU LOC101060620 /// MAPK8IP1 (11723275_at) / Fold change /veh LOC101060620 /// MAPK8IP1 (11723275_at) / RFU SPTSSB (11747773_x_at) / Fold change /veh SPTSSB (11747773_x_at) / RFU PRSS12 (11739890_at) / Fold change /veh PRSS12 (11739890_at) / RFU BIN1 (11741810_x_at) / Fold change /veh BIN1 (11741810_x_at) / RFU WNT11 (11732464_a_at) / Fold change /veh WNT11 (11732464_a_at) / RFU C10orf10 (11716521_a_at) / Fold change /veh C10orf10 (11716521_a_at) / RFU C5orf56 (11738089_at) / Fold change /veh C5orf56 (11738089_at) / RFU CYB561 (11721691_x_at) / Fold change /veh CYB561 (11721691_x_at) / RFU ANKRD19P (11752326_a_at) / Fold change /veh ANKRD19P (11752326_a_at) / RFU OR2T12 /// OR2T33 /// OR2T8 (11738714_s_at) / Fold change /veh OR2T12 /// OR2T33 /// OR2T8 (11738714_s_at) / RFU VCAN (11748164_a_at) / Fold change /veh VCAN (11748164_a_at) / RFU JSRP1 (11732532_at) / Fold change /veh JSRP1 (11732532_at) / RFU KRTAP10-11 (11738290_x_at) / Fold change /veh KRTAP10-11 (11738290_x_at) / RFU MYO3A (11730013_a_at) / Fold change /veh MYO3A (11730013_a_at) / RFU EBF3 (11725865_a_at) / Fold change /veh EBF3 (11725865_a_at) / RFU CAMK2N1 (11719241_x_at) / Fold change /veh CAMK2N1 (11719241_x_at) / RFU C5orf56 (11738088_a_at) / Fold change /veh C5orf56 (11738088_a_at) / RFU OLFML3 (11715873_a_at) / Fold change /veh OLFML3 (11715873_a_at) / RFU LOC100653217 /// NTM (11731650_a_at) / Fold change /veh LOC100653217 /// NTM (11731650_a_at) / RFU MAPK11 (11762145_a_at) / Fold change /veh MAPK11 (11762145_a_at) / RFU FIZ1 (11724087_x_at) / Fold change /veh FIZ1 (11724087_x_at) / RFU OASL (11726364_x_at) / Fold change /veh OASL (11726364_x_at) / RFU SOX15 (11748057_x_at) / Fold change /veh SOX15 (11748057_x_at) / RFU CD79A (11719716_a_at) / Fold change /veh CD79A (11719716_a_at) / RFU HIST1H1D (11736915_at) / Fold change /veh HIST1H1D (11736915_at) / RFU CASKIN2 (11723855_a_at) / Fold change /veh CASKIN2 (11723855_a_at) / RFU LOC730098 (11760151_x_at) / Fold change /veh LOC730098 (11760151_x_at) / RFU OR4N2 (11742367_at) / Fold change /veh OR4N2 (11742367_at) / RFU PRRT2 (11749266_a_at) / Fold change /veh PRRT2 (11749266_a_at) / RFU SNX32 (11753110_a_at) / Fold change /veh SNX32 (11753110_a_at) / RFU CDHR5 (11726645_a_at) / Fold change /veh CDHR5 (11726645_a_at) / RFU RCAN1 (11760418_a_at) / Fold change /veh RCAN1 (11760418_a_at) / RFU FAM167A (11723789_a_at) / Fold change /veh FAM167A (11723789_a_at) / RFU FAM26E (11764081_at) / Fold change /veh FAM26E (11764081_at) / RFU ISYNA1 (11749810_s_at) / Fold change /veh ISYNA1 (11749810_s_at) / RFU ACY1 (11761880_at) / Fold change /veh ACY1 (11761880_at) / RFU 11764098_at / Fold change /veh 11764098_at / RFU SAMD14 (11745864_x_at) / Fold change /veh SAMD14 (11745864_x_at) / RFU NPB (11741838_a_at) / Fold change /veh NPB (11741838_a_at) / RFU TMPRSS6 (11731388_a_at) / Fold change /veh TMPRSS6 (11731388_a_at) / RFU KRTAP10-2 (11738614_at) / Fold change /veh KRTAP10-2 (11738614_at) / RFU ARHGAP8 /// PRR5-ARHGAP8 (11727945_x_at) / Fold change /veh ARHGAP8 /// PRR5-ARHGAP8 (11727945_x_at) / RFU KRTAP5-7 /// NADSYN1 (11734609_at) / Fold change /veh KRTAP5-7 /// NADSYN1 (11734609_at) / RFU RASL12 (11751679_a_at) / Fold change /veh RASL12 (11751679_a_at) / RFU CDKN2B (11736163_a_at) / Fold change /veh CDKN2B (11736163_a_at) / RFU PRF1 (11729649_at) / Fold change /veh PRF1 (11729649_at) / RFU, ZNF638 /// ZNF638-IT1 / Fold change vs veh, ZNF638 /// ZNF638-IT1 / RFU, PANK3 / Fold change vs veh, PANK3 / RFU, SH3YL1 / Fold change vs veh, SH3YL1 / RFU, ZEB2 / Fold change vs veh, ZEB2 / RFU, NRIP1 / Fold change vs veh, NRIP1 / RFU, PTTG1IP / Fold change vs veh, PTTG1IP / RFU, CAPN2 / Fold change vs veh, CAPN2 / RFU, MED14 / Fold change vs veh, MED14 / RFU, SNORA58 / Fold change vs veh, SNORA58 / RFU, C1orf63 / Fold change vs veh, C1orf63 / RFU, LRRFIP1 / Fold change vs veh, LRRFIP1 / RFU, NDUFAF7 / Fold change vs veh, NDUFAF7 / RFU, SLC12A2 / Fold change vs veh, SLC12A2 / RFU, IBTK / Fold change vs veh, IBTK / RFU, ESF1 / Fold change vs veh, ESF1 / Fold change vs veh, TMEM50B / RFU, TAOK1 / Fold change vs veh, TAOK1 / RFU, ACBD3 / Fold change vs veh, ACBD3 / RFU, TMA16 / Fold change vs veh, TMA16 / RFU, RWDD3 / Fold change vs veh, RWDD3 / RFU, BCAT1 / Fold change vs veh, BCAT1 / RFU, EDEM3 / Fold change vs veh, EDEM3 / RFU, TMEM33 / Fold change vs veh, TMEM33 / RFU, WDR75 / Fold change vs veh, WDR75 / RFU, AHCTF1 / Fold change vs veh, AHCTF1 / RFU, TFRC / Fold change vs veh, TFRC / RFU, ZDHHC17 / Fold change vs veh, ZDHHC17 / RFU, NOM1 / Fold change vs veh, NOM1 / RFU, ARL8B / Fold change vs veh, ARL8B / RFU, ZBTB11 / Fold change vs veh, ZBTB11 / RFU, TAMM41 / Fold change vs veh, TAMM41 / RFU, KIAA1704 /// LOC100996395 / Fold change vs veh, KIAA1704 /// LOC100996395 / RFU, ING1 / Fold change vs veh, ING1 / RFU, TRMT61B / Fold change vs veh, TRMT61B / RFU, FUBP3 / Fold change vs veh, FUBP3 / RFU, TP53 / Fold change vs veh, TP53 / RFU, TNKS2 / Fold change vs veh, TNKS2 / RFU, ZFP14 / Fold change vs veh, ZFP14 / RFU, ACTR2 / Fold change vs veh, ACTR2 / RFU, PPP3R1 / Fold change vs veh, PPP3R1 / RFU, PIK3R1 / Fold change vs veh, PIK3R1 / RFU, HNRNPA1 / Fold change vs veh, HNRNPA1 / RFU, RNF170 / Fold change vs veh, RNF170 / RFU, ZNF28 / Fold change vs veh, ZNF28 / RFU, RNGTT / Fold change vs veh, RNGTT / RFU, OGT / Fold change vs veh, OGT / RFU, BRD1 / Fold change vs veh, BRD1 / RFU, MARS / Fold change vs veh, MARS / RFU, ZNF655 / Fold change vs veh, ZNF655 / RFU, FAHD1 / Fold change vs veh, FAHD1 / RFU, BDP1 / Fold change vs veh, BDP1 / RFU, LRRCC1 / Fold change vs veh, LRRCC1 / RFU, ARID1A / Fold change vs veh, ARID1A / RFU, ZNF146 / Fold change vs veh, ZNF146 / RFU, ZNF330 / Fold change vs veh, ZNF330 / RFU, GPN3 / Fold change vs veh, GPN3 / RFU, C9orf123 / Fold change vs veh, C9orf123 / RFU, N4BP2L2 / Fold change vs veh, N4BP2L2 / RFU, ARFIP1 / Fold change vs veh, ARFIP1 / RFU, FAM179B / Fold change vs veh, FAM179B / RFU, BCL10 / Fold change vs veh, BCL10 / RFU, UHRF1BP1L / Fold change vs veh, UHRF1BP1L / RFU, BET1 / Fold change vs veh, BET1 / RFU, CNOT2 / Fold change vs veh, CNOT2 / RFU, ZNF268 / Fold change vs veh, ZNF268 / Fold change vs veh, ZNF507 / RFU, DGCR2 / Fold change vs veh, DGCR2 / RFU, WDSUB1 / Fold change vs veh, WDSUB1 / Fold change vs veh, HSP90B1 /// MIR3652 / RFU, ADSS / Fold change vs veh, ADSS / RFU, GK / Fold change vs veh, GK / RFU, ZNF148 / Fold change vs veh, ZNF148 / RFU, TAF9 / Fold change vs veh, TAF9 / RFU, SLC1A5 / Fold change vs veh, SLC1A5 / RFU, SLMO2 / Fold change vs veh, SLMO2 / RFU, ABCC4 / Fold change vs veh, ABCC4 / RFU, LOC101060439 /// RAP1B / Fold change vs veh, LOC101060439 /// RAP1B / RFU, RFX7 / Fold change vs veh, RFX7 / RFU, GTPBP10 / Fold change vs veh, GTPBP10 / RFU, CNEP1R1 / Fold change vs veh, CNEP1R1 / RFU, BIVM-ERCC5 /// ERCC5 / Fold change vs veh, BIVM-ERCC5 /// ERCC5 / RFU, ILF3 / Fold change vs veh, ILF3 / RFU 11762660_at / Fold change /veh 11762660_at / RFU VCAN (11757783_s_at) / Fold change /veh VCAN (11757783_s_at) / RFU DDX43 (11728927_at) / Fold change /veh DDX43 (11728927_at) / RFU KRT8 (11758188_x_at) / Fold change /veh KRT8 (11758188_x_at) / RFU NKD1 (11759106_at) / Fold change /veh NKD1 (11759106_at) / RFU SRD5A1 (11742802_a_at) / Fold change /veh SRD5A1 (11742802_a_at) / RFU TPSAB1 /// TPSB2 (11721975_s_at) / Fold change /veh TPSAB1 /// TPSB2 (11721975_s_at) / RFU GSTM3 (11746129_a_at) / Fold change /veh GSTM3 (11746129_a_at) / RFU IL23R (11737362_x_at) / Fold change /veh IL23R (11737362_x_at) / RFU TMEM51 (11727254_a_at) / Fold change /veh TMEM51 (11727254_a_at) / RFU PIWIL2 (11732686_x_at) / Fold change /veh PIWIL2 (11732686_x_at) / RFU ORM1 (11744905_x_at) / Fold change /veh ORM1 (11744905_x_at) / RFU CCDC152 (11743942_at) / Fold change /veh CCDC152 (11743942_at) / RFU ECM1 (11717891_a_at) / Fold change /veh ECM1 (11717891_a_at) / RFU IL23R (11748794_a_at) / Fold change /veh IL23R (11748794_a_at) / RFU TNFAIP8L3 (11732012_x_at) / Fold change /veh TNFAIP8L3 (11732012_x_at) / RFU MBOAT4 (11741988_at) / Fold change /veh MBOAT4 (11741988_at) / RFU 11764193_at / Fold change /veh 11764193_at / RFU TMEM53 (11763286_at) / Fold change /veh TMEM53 (11763286_at) / RFU MAGEB2 (11727129_at) / Fold change /veh MAGEB2 (11727129_at) / RFU TMEM200A (11744735_a_at) / Fold change /veh TMEM200A (11744735_a_at) / RFU CCDC152 (11751479_a_at) / Fold change /veh CCDC152 (11751479_a_at) / RFU FAM211A (11726209_a_at) / Fold change /veh FAM211A (11726209_a_at) / RFU RGS16 (11746705_a_at) / Fold change /veh RGS16 (11746705_a_at) / RFU VCAN (11755009_s_at) / Fold change /veh VCAN (11755009_s_at) / RFU RHOB (11743442_s_at) / Fold change /veh RHOB (11743442_s_at) / RFU RGS16 (11720943_a_at) / Fold change /veh RGS16 (11720943_a_at) / RFU RGS16 (11720944_at) / Fold change /veh RGS16 (11720944_at) / RFU, VPS4B / Fold change vs veh, VPS4B / RFU, CREB1 / Fold change vs veh, CREB1 / RFU, DNAJC13 / Fold change vs veh, DNAJC13 / RFU, GNAQ / Fold change vs veh, GNAQ / RFU, CDK5R1 / Fold change vs veh, CDK5R1 / RFU, ZRANB3 / Fold change vs veh, ZRANB3 / RFU, CUL4A / Fold change vs veh, CUL4A / RFU, CCNY / Fold change vs veh, CCNY / RFU, UFL1 / Fold change vs veh, UFL1 / RFU, COG3 / Fold change vs veh, COG3 / RFU, DIAPH2 / Fold change vs veh, DIAPH2 / RFU, SKA2 / Fold change vs veh, SKA2 / RFU, AFF3 / Fold change vs veh, AFF3 / RFU, LMF1 / Fold change vs veh, LMF1 / RFU, IPO11 / Fold change vs veh, IPO11 / RFU, DFFB / Fold change vs veh, DFFB / RFU, FOXP1 / Fold change vs veh, FOXP1 / RFU, CARD8 / Fold change vs veh, CARD8 / RFU, STRN3 / Fold change vs veh, STRN3 / RFU, ADK / Fold change vs veh, ADK / RFU, RASSF2 / Fold change vs veh, RASSF2 / RFU, WIPF1 / Fold change vs veh, WIPF1 / RFU, LARP1B / Fold change vs veh, LARP1B / RFU, RASA1 / Fold change vs veh, RASA1 / RFU, RB1 / Fold change vs veh, RB1 / RFU, PPFIA1 / Fold change vs veh, PPFIA1 / RFU, MAT2A / Fold change vs veh, MAT2A / RFU, CCT5 / Fold change vs veh, CCT5 / RFU, WDR92 / Fold change vs veh, WDR92 / RFU, CUX1 / Fold change vs veh, CUX1 / RFU, TTC7A / Fold change vs veh, TTC7A / RFU, TMEM135 / Fold change vs veh, TMEM135 / RFU, DEPTOR / Fold change vs veh, DEPTOR / RFU, CPM / Fold change vs veh, CPM / RFU, DNAJB6 / Fold change vs veh, DNAJB6 / RFU, CACNA2D3 / Fold change vs veh, CACNA2D3 / RFU, DTX4 / Fold change vs veh, DTX4 / RFU, TFCP2 / Fold change vs veh, TFCP2 / RFU, GMCL1 /// GMCL1P1 / Fold change vs veh, GMCL1 /// GMCL1P1 / RFU, AEBP2 / Fold change vs veh, AEBP2 / RFU, SNHG1 /// SNORD22 /// SNORD25 /// SNORD26 /// SNORD27 /// SNORD28 /// SNORD29 /// SNORD31 / Fold change vs veh, SNHG1 /// SNORD22 /// SNORD25 /// SNORD26 /// SNORD27 /// SNORD28 /// SNORD29 /// SNORD31 / Fold change (Aza/veh), C12orf56 (ProbeSet 11735607_a_at) / Fold change (ACY-1035/veh), C12orf56 (ProbeSet 11735607_a_at) / Fold change (Aza/veh), FGFR1OP (ProbeSet 11751329_s_at) / Fold change (ACY-1035/veh), FGFR1OP (ProbeSet 11751329_s_at) / Fold change (Aza/veh), VPS36 (ProbeSet 11739960_a_at) / Fold change (ACY-1035/veh), VPS36 (ProbeSet 11739960_a_at) / RFU SYPL1 (11715823_x_at) / Fold change /veh SYPL1 (11715823_x_at) / RFU IGFBP7 (11715501_s_at) / Fold change /veh IGFBP7 (11715501_s_at) / RFU REEP3 (11722064_at) / Fold change /veh REEP3 (11722064_at) / RFU IGLL1 (11728026_x_at) / Fold change /veh IGLL1 (11728026_x_at): dose or concentration left out as unconfirmed
Settings: ProbeSet 11740011_at; LIST B

**Q.** How did the “Fold change vs veh, ZFP14” value turn out when `Nc1ccc(-c2cccs2)cc1NC(=O)c1ccc2c(c1)cc(C1CC1)n2CCN1CCOCC1` [ACY-1035] was run?
**A.** The value was 1.03.
